Data set [1] relates to HCT-116. Briefly: Orthotopic HCT-116 mouse xenograft study, tumor volume. It counts as in vivo, BALB/c nude mice. Conditions: for tumor volume: day 43, vehicle 1,139 ± 580. The method, then:
(§1) This animal study was contracted to CrownBio International R&D Center (Beijing, China) and was conducted under the approval of the Animal Ethics Committee at CrownBio in compliance with institutional and national guidelines. Seven-to eight-week-old female BALB/c nude mice were obtained from HFK Bio-Technology Co., Ltd. (Beijing, China). HCT-116 cells (2 × 10^6) were suspended in 20 μL PBS and then injected into the cecal wall. Treatment began on day 14 after cell inoculation when tumor reached ∼100 mm^3 measured in a satellite group of three mice. Treatment groups include vehicle control [PEG400:pH 10 carbonate buffer (40:60)], CVM-1118 at 20, 50, and 100 mg/kg given orally daily for 28 days, and CVM-1118 at 20 mg/kg given as intravenous injection once every 2 days for 7 times. Tumor volumes were measured at the end of in-life study on day 43. At the end of in vivo study, tumor tissues from selected groups were excised, collected, and subjected to standard immunohistochemical procedures to visualize the effect of CVM-1118 on VM network formation. Briefly, rabbit anti-human CD31 antibody (Abcam) was used as the primary Ab for the staining and the number of channels with CD31+/red blood cell (RBC)+, or CD31−/RBC+ were counted based on five light fields (×200) on the whole section of each sample in each group under microscope. Analysis of difference in tumor volume for drug-treated group against vehicle control group was conducted using one-way ANOVA followed by least significant difference (LSD) test (equal variance tested and confirmed by Brown-Forsythe test). Statistical analysis for VM formation was evaluated using Mann-Whitney test. All data were analyzed using GraphPad Prism 9.5.

The test system of data set [2] is HCT-116. In words: In vivo vasculogenic mimicry (CD31−/RBC+ channels) in orthotopic HCT-116 xenograft. More on the design: species or system BALB/c nude mice. The note with it: 100 mg/kg oral, excised colon tumor tissues, vs vehicle. On the procedure: as §1, with “At the end of in vivo study, tumor tissues from selected groups were excised, collected, and subjected to standard immunohistochemical procedures to visualize the effect of CVM-1118 on VM network formation.” left out, “Analysis of difference in tumor volume for drug-treated group against vehicle control group was conducted using one-way ANOVA followed by least significant difference (LSD) test (equal variance tested and confirmed by Brown-Forsythe test).” left out

A further data set concerns the target Nucleolin (Homo sapiens, UniProt P19338). In words: Surface plasmon resonance (Biacore). The format is binding. The note with it: SPR.
The next data set concerns MDA-MB-435. In words: NCI 60 cytotoxicity screening. The format is cell-based. The note with it: Homo sapiens; MDA-MB-435, Melanoma.
The next data set concerns HT29. Briefly: NCI 60 cytotoxicity screening. The note with it: Homo sapiens, HT-29; HT29, Colon. It counts as cell-based.
The target in the next data set is T1, TRAP1 (Homo sapiens, UniProt Q12931).
T1 sequence (Q12931 60-704): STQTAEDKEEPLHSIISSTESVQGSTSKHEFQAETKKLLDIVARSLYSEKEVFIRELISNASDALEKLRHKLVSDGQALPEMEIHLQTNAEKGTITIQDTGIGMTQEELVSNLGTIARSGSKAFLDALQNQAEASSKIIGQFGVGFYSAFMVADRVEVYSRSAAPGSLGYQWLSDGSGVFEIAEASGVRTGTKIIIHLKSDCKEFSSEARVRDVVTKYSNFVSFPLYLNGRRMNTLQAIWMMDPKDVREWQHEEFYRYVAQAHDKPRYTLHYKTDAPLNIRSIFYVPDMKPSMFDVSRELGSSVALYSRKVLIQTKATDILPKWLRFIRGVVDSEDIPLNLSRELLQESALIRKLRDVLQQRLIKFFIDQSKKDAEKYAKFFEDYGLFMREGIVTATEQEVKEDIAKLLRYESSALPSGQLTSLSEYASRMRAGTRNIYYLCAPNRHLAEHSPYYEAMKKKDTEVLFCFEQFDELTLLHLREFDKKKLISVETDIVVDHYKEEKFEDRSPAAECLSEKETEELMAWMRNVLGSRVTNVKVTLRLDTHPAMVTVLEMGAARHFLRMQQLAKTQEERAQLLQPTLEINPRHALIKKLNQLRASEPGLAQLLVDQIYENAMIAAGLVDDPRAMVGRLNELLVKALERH
In words: Western blot of TRAP1 protein level. It counts as cell-based. The arrangement: purchased Abcam ab123775. The method, then: The methods for detecting TRAP1 proteins were as follows: 4 × 10^5 SKOV-3 cells and 8 × 10^5 COLO-205 cells were seeded onto 6-well plates. After 18 h, the culture medium was changed to contain 50, 100, 200, and 400 nM CVM-1125, and samples were recovered for analysis at 24 or 48 h. To explore the pathway of CVM-1125 degradation of TRAP1 protein, the experimental design was as follows: 1 × 10^6 COLO-205 cells were seeded onto 6-well plates. After 18 h, the culture medium was changed to contain 200 nM CVM-1125, 25 µM chloroquine (CQ), and 2.5 µM MG132, and samples were recovered for analysis at 24 h. Cells at 80% confluence were collected with trypsin, centrifuged, and harvested by PBS into a sample buffer (1M Tris pH 6.8, 50% Glycerol, 10% SDS, 1% bromophenol blue, and 2-mercaptoethanol). Cell lysates were heated at 95°C for 10 min and loaded onto 10% SDS-PAGE. Proteins separated on the gel were transferred to a 0.45 μM PVDF membrane (Merk Milipore, IPVH00010) at 4°C overnight and was then blocked at room temperature with 5% skim milk for 30 min. The primary antibodies were diluted with 5% skim milk in PBS for β-actin (Sigma, A5441, 1:20,000) and TRAP1 (Santa Cruz, sc-13557, 1:100) and incubated for 2 h at room temperature. […]

pKd: −log10 of the molar value.

Chain of Nucleolin (P19338 whole entry): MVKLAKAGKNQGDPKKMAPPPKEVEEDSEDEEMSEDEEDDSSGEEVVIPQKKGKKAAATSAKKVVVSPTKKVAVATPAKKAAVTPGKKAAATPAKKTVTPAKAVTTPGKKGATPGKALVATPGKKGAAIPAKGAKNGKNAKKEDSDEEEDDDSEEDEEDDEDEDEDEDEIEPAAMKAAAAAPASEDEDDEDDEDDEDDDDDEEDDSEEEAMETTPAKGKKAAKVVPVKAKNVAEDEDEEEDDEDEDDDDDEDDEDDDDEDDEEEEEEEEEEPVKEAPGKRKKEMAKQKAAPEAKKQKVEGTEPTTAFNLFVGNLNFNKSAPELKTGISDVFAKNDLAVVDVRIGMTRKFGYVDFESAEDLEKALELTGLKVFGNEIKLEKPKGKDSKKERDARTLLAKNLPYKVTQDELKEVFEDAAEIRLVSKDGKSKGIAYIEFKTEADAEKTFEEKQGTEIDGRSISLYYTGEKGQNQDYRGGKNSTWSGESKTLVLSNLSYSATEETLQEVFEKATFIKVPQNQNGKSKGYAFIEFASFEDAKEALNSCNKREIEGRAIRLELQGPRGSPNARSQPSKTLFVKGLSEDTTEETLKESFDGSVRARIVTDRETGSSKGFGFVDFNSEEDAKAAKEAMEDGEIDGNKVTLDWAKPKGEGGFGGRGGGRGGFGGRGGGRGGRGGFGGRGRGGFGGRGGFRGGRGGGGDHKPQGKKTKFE

On to `COc1ccc2[nH]c(-c3cccc(F)c3)cc(=O)c2c1OP(=O)(O)O` [CVM-1118], for which the tumor volume is 670 ± 447 mm^3 with HCT-116 [1] (20 mg/kg i.v. once every 2 days for 7 times), 1,591 ± 747 mm^3 in the data set on HCT-116 [1] (20 mg/kg orally daily for 28 days), 722 ± 595 mm^3 in the data set with HCT-116 [1] (50 mg/kg orally daily for 28 days) and 475 ± 415 mm^3 in the data set with HCT-116 [1] (100 mg/kg orally daily for 28 days). Besides, the “animals found dead prior to the termination of the study” value was “two mice” in the data set on HCT-116 [1] (20 mg/kg i.v. treatment group) and “One mouse” in the data set on HCT-116 [1] (50 mg/kg oral treatment group). Further, the “reduction of VM network formation (VM channels)” value in the data set with HCT-116 [2] is listed as 85%.

Turning to `COc1ccc2[nH]c(-c3cccc(F)c3)cc(=O)c2c1O` [CVM-1125], the “Dissociation (kd)” value on Nucleolin was found to be 0.0122 s⁻¹. Moreover, the kon at Nucleolin (read-out: Association (ka)) turned out to be 13500 M⁻¹ s⁻¹. The pKd at Nucleolin (read-out: KD (kd/ka)) is 6.04. Also, the GI50 in the data set on MDA-MB-435 is under 10 nM; with HT29, 29 nM. Moreover, the TRAP1 protein levels entry is listed as “reduced with increasing concentrations” at TRAP1 (COLO205, 50–400 nM) and “reduced with increasing concentrations” on TRAP1 (SKOV3, 50–400 nM).

These data come from paper PMC10283505, “CVM-1118 (foslinanib), a 2-phenyl-4-quinolone derivative, promotes apoptosis and inhibits vasculogenic mimicry via targeting TRAP1” (Pathology and Oncology Research, 2023).
